US8765688B2, “Anti-dandruff compositions containing peptides” (priority 2007, dated 2014)
Ends that are not written are not given here.

Key:
Format in all cases: cell-based
Malassezia furfur [1] = assay: Inhibition of Malassezia furfur growth test (optical density and colony-forming units), Examples 1 and 2; conditions: for colony-forming units: 10 μl plated out
Description: Growth medium: M472-Pitysporum medium according to DSMZ
(§1) The components were sterilized at 121° C., 1 bar superatmospheric pressure for 20 minutes.
2 g/l of olive oil were sterilized by filtration and, after autoclaving, added to the other components.
(§2) Since it was a two-phase medium, the complete medium was treated with sonication in order to enlarge the phase boundary.
For agar plates, if appropriate, […] of agar agar were added to the medium.
The growth test was carried out as follows: A shake flask with M472-Pitysporum medium was inoculated with M. furfur and incubated with shaking overnight at 30° C. and 200 rpm.
A 96-well microtiter plate was filled with in each case 100 μl of M472-Pitysporum medium and inoculated with M. furfur suspension of the overnight culture. The M. furfur suspension was adjusted at the start of the experiment to an optical density, measured at 620 nm, of 0.02. The concentrates of the inhibitor solutions were 1 mM in water or DMSO.
The growth of the following batches was compared by measuring the optical density:
M. furfur suspension without the addition of an inhibitor.
This was to exclude that an inhibition is attributable merely to the effect of the DMSO, or a false positive result being observed.
M. furfur suspension and addition of an aqueous P18 solution with a final concentration of 25 μM.
M. furfur suspension and addition of a P18 solution in DMSO with a final concentration of 25 μM.
M. furfur suspension and addition of a zinc pyrithione (ZPT, Sigma-Aldrich) solution in DMSO with a final concentration of 25 μM.
M. furfur suspension and addition of a Ketoconazole (Sigma-Aldrich) solution in DMSO with a final concentration of 25 μM.
(§3) The microtiter plate was incubated with shaking at 30° C.
[…] The colony-forming units (CFU) were then determined by plating out 10 μl from each of the suspensions and, after incubation for 6 days, counting the colonies. The CFU was determined in order to exclude an influence of the two-phase medium and also the growth form of M. furfur on the optical density. […] The experiments were carried out at least in triple determinations and independently repeated.
For this, the procedure was as described in Example 1. 1 mM stock solutions of the fusion peptide P18, magainin 2 and cecropin A in DMSO were prepared. The final concentrations of the peptides in the growth experiments were 25 μM. The same amount of DMSO was likewise added to the suspension without inhibitor in order to exclude a growth-inhibiting effect of the DMSO.
The growth of the following mixtures was compared by measuring the optical density:
This was to exclude that an inhibition is attributable merely to the effect of the DMSO.
M. furfur suspension and addition of a magainin 2 solution in DMSO with a final concentration of 25 μM.
M. furfur suspension and addition of a cecropin A solution in DMSO with a final concentration of 25 μM.
M. furfur suspension and addition of a peptide P18 (SEQ ID NO3) solution in DMSO with a final concentration of 25 μM.

Malassezia furfur [2] = assay: Minimum inhibitory concentration (MIC) of P18 in the presence of shampoo basic formulation 31-3, CFU after 24 hours; conditions: for CFU after 24 hours of incubation: in presence of shampoo basic formulation 31-3
Description: The minimum inhibitory concentration (MIC) of the peptide P18 (H-KWKLFKKIPKFLHLAKKF-NH2; carboxy-terminal end amidated; SEQ ID NO: 3) in the presence of the shampoo basic formulation 31-3 (table 16) was tested as follows: […]
The following shampoo basic formulation was prepared: […]
The shampoo basic formulation was prepared by mixing and dissolving the components Texapon NSO and Tego Betain L7. The pH was adjusted to pH 6-7 with NaOH.
The effect of the peptide against M. furfur was analyzed as follows:
Growth medium: M472-Pityrosporum medium according to DSMZ
as §1
2 g/L of olive oil (sterilized by filtration and, after autoclaving, added to the other components)
as §2
For agar plates, if appropriate, 150 g/L of agar agar were added to the medium.
The growth test was carried out as follows: A shake flask with M472-Pityrosporum medium was inoculated with M. furfur and incubated with shaking overnight at 30° C. and 200 rpm.
A 96-well microtiter plate was filled with in each case 170 μl of M472-Pityrosporum medium and inoculated with 10 μl of M. furfur suspension of the overnight culture. This corresponded to an optical density of 0.02-0.1, measured at 620 nm. 20 μl of shampoo basic formulation 31-3 were added to this mixture. Peptide P18 was dissolved in DMSO with a concentration of 10 mM.
as §3
After incubation for 24 hours, the colony-forming units (CFU) were determined by resuspending 1 μl of each of the suspensions in 10 μl of medium and then plating out the obtained suspensions. After incubation for 6 days, the colonies on the plate were counted. The experiment was carried out in double determination.

Malassezia furfur [3] = assay: Kinetics of the effect of P18 on M. furfur in the presence of a shampoo basic formulation, CFU; conditions: 2.3-0.23 g/l, 5 min to 24 hours, 10% (v/v) formulation 31-3
Description: The effect of the peptide […]; carboxy-terminal end amidated; […] The experiments were carried out as follows: The following shampoo basic formulation was prepared: The components Texapon NSO and Tego Betain L7 were mixed and dissolved. The pH was adjusted to pH 6-7 with NaOH. The effect of P18, ZPT and Climbazole against M. furfur was analyzed as follows: Growth medium: […]-Pityrosporum medium according to DSMZ 40 g/L malt extract 20 g/L ox bile 10 g/L Tween 40 The components were sterilized at 121° C., 1 bar superatmospheric pressure for 20 minutes. 2 g/L of olive oil (sterilized by filtration and, after autoclaving, added to the other components) Since it was a two-phase medium, the complete medium was treated with sonication in order to enlarge the phase boundary. For agar plates, if appropriate, […] of agar agar were added to the medium. The growth test was carried out as follows: […]. furfur and incubated with shaking overnight at 30° C. and 200 rpm. A 96-well microtiter plate was filled with in each case 100 μl of […]. furfur suspension of the overnight culture. […] The peptide P18 was dissolved in water with a concentration of 230 g/l. […] The microtiter plate was incubated with shaking at 30° C.

[4] = aqueous solution, 25 μM, incubation time 16 h
[5] = aqueous solution, 25 μM, incubation time 24 h
[6] = aqueous solution, 25 μM, incubation time 40 h
[7] = solution in DMSO, 25 μM, incubation time 16 h
[8] = solution in DMSO, 25 μM, incubation time 24 h
[9] = solution in DMSO, 25 μM, incubation time 40 h

With “KWKLFKKIPKFLHLAKKF-NH2 [P18, KWKLFKKIPKFLHLAKKF-NH2]” the “inhibition of the growth of M. furfur compared to magainin 2 or cecropin A” value (Malassezia furfur [1]; 25 μM in DMSO) was “more effectively than magainin 2 or cecropin A alone”, the “growth of M. furfur (in words)” value (Malassezia furfur [1]; 25 μM, observed time period up to 40 hours) was “effectively inhibited” and the optical density (Malassezia furfur [1]; aqueous solution, 25 μM, incubation time 0 h) was 0. For the same substance, the optical density (Malassezia furfur [1]; [4]) was 0, the colony-forming units (Malassezia furfur [1]; [4]) was 62 and the optical density (Malassezia furfur [1]; [5]) was 0. It also gave a colony-forming units (Malassezia furfur [1]; [5]) of 41, an optical density (Malassezia furfur [1]; [6]) of 0 and a colony-forming units (Malassezia furfur [1]; [6]) of 120. The optical density (Malassezia furfur [1]; solution in DMSO, 25 μM, incubation time 0 h) was 0, the optical density (Malassezia furfur [1]; [7]) was 0 and the colony-forming units (Malassezia furfur [1]; [7]) was 8. It also gave an optical density (Malassezia furfur [1]; [8]) of 0, a colony-forming units (Malassezia furfur [1]; [8]) of 0 and an optical density (Malassezia furfur [1]; [9]) of 0. It also gave a colony-forming units (Malassezia furfur [1]; [9]) of 0, a CFU (Malassezia furfur [1]; solution in DMSO, 25 μM, incubation time 64 h) of 0 and a CFU (Malassezia furfur [1]; solution in DMSO, 25 μM, incubation time 72 h) of 23. The “CFU after 24 hours of incubation” value (Malassezia furfur [2]; P18 concentration 25 μM) was 80, the “CFU after 24 hours of incubation” value (Malassezia furfur [2]; P18 concentration 50 μM) was 32 and the “CFU after 24 hours of incubation” value (Malassezia furfur [2]; P18 concentration 100 μM) was 0. For the same substance, the “CFU after 24 hours of incubation” value (Malassezia furfur [2]; P18 concentration 200 μM) was 0, the “CFU after 24 hours of incubation” value (Malassezia furfur [2]; P18 concentration 300 μM) was 0 and the “CFU after 24 hours of incubation” value (Malassezia furfur [2]; P18 concentration 400 μM) was 0. For the same substance, the “CFU after 24 hours of incubation” value (Malassezia furfur [2]; P18 concentration 500 μM) was 0, the “P18 concentrations that completely inhibit growth of M. furfur” value (Malassezia furfur [2]; in the presence of shampoo basic formulation 31-3, 24 hours) was “above 100 μM” and the “effect on M. furfur in the presence of shampoo basic formulation (in words)” value (Malassezia furfur [3]) was “superior characteristics as compared to Zincpyrithione or Climbazole”.
